# Source: US7705203B2, “Benzoate inductible promoters” (Purdue Research Foundation, priority 2002, dated 2010)
# “Also recorded” adds a separate entry of the source.
# Legend:
# bphA gene = test: RNA (Northern) blot of bphA gene transcription in mycelia; assay type: cell-based, Aspergillus niger; details: 8 mM inducer, RNA blot (FIG. 4)
# Experimental: The time course gene expression induction was examined by analyzing total RNA at different times after adding benzoic acid. Northern (RNA) blots were carried out using total RNA extracted from mycelia grown for different periods of time in the presence of benzoic acid. Initially, the fungus was inoculated in CM medium (Pontecorvo (1953) Adv. Genet. 5: 141-238) for 24 hours, transferred to benzoate-containing medium (0.1% w/v) for different times, and total RNA was extracted using the Rneasy Plant Total RNA kit (Qiagen Inc, Valencia, Calif.) according to the manufacturer's instructions. Total RNA was resolved on a formaldehyde-agarose gel and transferred to a Hybond-N nylon membrane (Amersham Life Sci. Inc, Arlington Heights, Ill.). Radiolabeled BPH probe was allowed to hybridize to the membrane, as described above. Northern blot methods were also carried out as recommended (Amersham).
# Different benzoate concentrations and inducers were used to better characterize the inducibility of the bphA gene. Gene expression was assayed by Northern blots. Benzoate 4-hydroxylase activity is also assessed by enzymatic assays to confirm the inducibility at the transcriptional level described by Van Gorcom et al. ((1990) Mol. Gen. Genet. 223, 192-197). Inducibility is also verified by reverse transcription of mRNAs produced under induction conditions.
# To verify the inducibility of the bphA gene by benzoic acid, A. niger was inoculated in complete medium and grown for 24 hours before being transferred to fresh medium containing 0.1% benzoic acid. Mycelia were harvested after different periods of induction, and total RNA was extracted.
# BRE = test: Activation of BRE fused to GFP in fungal protoplasts (surface receptor test); assay type: cell-based
# Experimental: While not necessary to understand to practice the invention, a more complicated mechanism of induction may include a surface receptor that binds to benzoate and which then initiates either some kind of signal transduction cascade or the release of a TF that then culminates in the activation of the BPH promoter (FIGS. 12C and D). The hypothesis of a surface receptor was tested by using the p-NH2-benzoate coupled to agarose (as described above) as a non-cleavable external probe. Fungal protoplasts containing the BRE fused to GFP were then prepared, and activation of the BRE (production of the GFP marker) by addition of the agarose-immobilized benzoate derivative to the fungal protoplasts was scored. […] In order to investigate whether the disparity of size between the larger agarose beads and fungal protoplasts may have caused steric problems in binding of the inducer, smaller ligands still incapable of uptake are constructed and utilized to confirm a non-membrane surface location.
# The hypothesis of a surface receptor was tested by using the p-NH2-benzoate coupled to agarose (as described above) as a non-cleavable external probe. Fungal protoplasts containing the BRE fused to GFP were then prepared, and activation of the BRE (production of the GFP marker) by addition of the agarose-immobilized benzoate derivative to the fungal protoplasts was scored. […]
# BREF51 = test: Electrophoretic Mobility Shift Assay (EMSA) with total protein extracts from yeast GAD clones; assay type: binding, A. niger; details: 5 μg total yeast protein extract
# From the text: The protein encoded by GAD1 (SEQ ID NO:15) is highly similar to a predicted protein present in the A. nidulans genome (E value 2e^−83), and similar to a hypothetical protein (B24P11.210) in the N. crassa genome (E value 4e^−27) (Table 2). GAD1 protein is rich in serine residues (16%), and is predicted by PSORTII (Nakai and Horton (1999) Trends Biochem. Sci. 24: 34-35) to be localized in the nucleus (70.6% probability). […] Serine-rich motifs can be phosphorylation targets by protein kinase C in proteins (Branden and Tooze (1999) Introduction to protein structure, 2nd ed. Garland Publishing, New York, N.Y. 410 p.). […] While not necessary to understand in order to practice the present invention, if GAD1 is involved in the regulation of BPHprom, GAD1 protein might be always bound to a benzoic acid response element in the bphA promoter. […] However, addition of benzoic acid could cause phosphorylation of one of the serine residues in GAD1, leading to its activation. […]
# Positive clones identified on the one-hybrid screen were grown in 100 mL of SD/-Leu media, and total proteins were extracted following a modified procedure from that described by Arndt et al. ((1987) Science 237: 874-880). […] Protein concentration of the resulting supernatant was determined by the Bradford method (Bio-Rad, Hercules, Calif.), and BSA was used as a standard.
Molecule,induction of transcription of the bphA gene (bphA gene),further results
OCc1ccccc1 [benzyl alcohol],do not induce the promoter,induction of transcription of the bphA gene (bphA gene; listed as Benzyl alcohol): not effective inducers
O=C(O)CCc1ccccc1 [hydrocinnamic acid],do not induce the promoter; also recorded: not effective inducers,–
COC(=O)c1ccccc1 [methyl benzoate],can induce the promoter; also recorded: induced,–
Nc1ccc(C(=O)O)cc1 [p-aminobenzoate],–,GFP fluorescence in the BRE-GFP transformed line (BRE): induced GFP fluorescence
O=C([O-])c1ccccc1.[Na+] [sodium benzoate],can induce the promoter; also recorded: induced,–
"GAD11: protein encoded by yeast one-hybrid clone GAD11 (SEQ ID NO:17), candidate transcription factor binding BREF51 (protein, Aspergillus niger) DSAESRFSLHSQGSVPPAPSTATKHMTPHNHTNNHGGPLPSKPGSEGASNNGTQITGPHESNLIEQFREREDKLWAYVRSVHEELNGLRTEVAALRAQLASANVNALAMSSQSAPQSQPETNAAGTSQR",–,gel mobility shift of the BREF51 fragment (BREF51): showed a gel mobility shift; also recorded: positive mobility shifts
"GAD1: protein encoded by yeast one-hybrid clone GAD1 (SEQ ID NO:15), candidate transcription factor binding BREF51 (protein, Aspergillus niger) MVSFKSLLTATTLATAVLAIPHSGHGHGSHKHRSTHVASKRTSSSKRGAAYNSASSVHTLTSGSSGNGTVSWAYDWNMYADGTLPSNVEYVPMLWGSKMFGGWLTAIETALDSGSNYIMGFNEPDSSSQASMTASEAASSYKNYITPYSGKAKLVTPAVTSSTTEGEGLSWMKSFLSECSECDMSVLAVHWYGTSADEFKSFVQEAMQVADDNGLDETWVTEFALTSDESAGGDESSAADFLDEGVGRYAYYMCADGYLLSGEELSSSGKVYVA",–,gel mobility shift of the BREF51 fragment (BREF51): showed a gel mobility shift; also recorded: positive mobility shifts
